“And” between values parts separate entries of the source, which are not always exact repeats. Identical values can stand only once. No end group written: not given here.
System: arachidonic acid induced inflammation in mouse ear
Assay: Mouse ear model, arachidonic acid (AA) induced inflammation, ear thickness
Type: in vivo
Details: for % Reduction of Ear Swelling / Ear Thickness: Table I, sc Alzet minipump
Protocol: The anti-inflammatory properties of CT-112 (SEQ. ID NO: 1) were assessed using a standardized assay for anti-inflammatory activity, i.e., the mouse ear model in which arachidonic acid (AA) is used to induce an inflammatory reaction (Young et al., 1984, J. Invest. Dermatol. 82:367-371; Doherty, et al., 1988, J. Invest. Dermatol. 91:298-302).
Female mice (C57BL/6UAF, Charles River Breeding Laboratories, approximately 15-18 g) were obtained and acclimated for 2 weeks prior to use. The animals were approximately 14 weeks old at the start of the study.
To prepare minipumps for implantation, CT-112 (SEQ. ID NO: 1) was dissolved in PBS. The material was loaded into Alzet minipumps set to deliver 0.05 (5 animals), 0.1 (10 animals), 1 (10 animals), or 2.5 (5 animals) mg of CT-112 (SEQ. ID NO: 1) per animal per day. Minipumps for implantation into control animals contained only PBS. As a positive control, one set of 10 mice received 100 mg/kg of phenidone, a potent 5-lipoxygenase inhibitor which acts as an anti-inflammatory agent, 15 min prior to challenge with AA.
For subcutaneous implantation of minipumps, animals were anesthetized with Ketamine/Xylazine. The Ketamine (Aveco Lot #440140) was injected at 80 mg/kg and the Xylazine (Rugby Laboratories Lot #26040-B) at 16 mg/kg and the Alzet pumps were implanted subcutaneously in the dorsothoracic area. Animals were allowed to recover and then housed and given food and water ad libitum for 5 days.
On the sixth day following pump implantation, 0.01 ml of AA was applied to the inner and outer surfaces of the right ear by means of an automatic microliter pipette. One hr following AA application, the mice were sacrificed and ear thickness was measured with a Mitutoyo No. 7300 Gauge Caliper. The left ears were also measured as an internal control.
Mice were implanted with Alzet mini-pumps set to deliver 60 mg/kg/day for either 7, 3, or 1 days. A separate group of 5 mice received 3 intraperitoneal injections of CT-112 (60 mg/kg/injection) at 24, 1 and 0.25 hr prior to AA challenge. CT-112 (SEQ. ID NO: 1) was prepared for injection by dissolving the compound in Dulbecco's PBS to give a final CT-112 (SEQ. ID NO: 1) concentration of 5 mg/ml. The control mice were implanted with Alzet minipumps that delivered PBS for 7 days. The AA challenge was the same as described supra in Example 7.
Administration of CT-112 (SEQ. ID NO: 1) (60 mg/kg/injection) via multiple intraperitoneal injections was performed at the following times prior to AA challenge:
In addition, the effect of a single administration of CT-112 (SEQ. ID NO: 1) (60 mg/kg) by intraperitoneal injection was performed at either 1 or 3 hr prior to AA challenge. Control mice had Alzet minipumps implanted to deliver PBS for 7 days prior to AA challenge. The AA challenge was the same as described supra in Example 7. The results of the multiple dosing regimens and the 1 hr and 3 hr single dosing regimens were compared to the anti-inflammatory activity of CT-112 (SEQ. ID NO: 1) delivered via Alzet minipump set to deliver 60 mg/kg/day for 7 days using 5 animals per treatment.
In a separate experiment, the effect of multiple intraperitoneal injections of CT-112 (SEQ. ID NO: 1) at either 6, 3, 1 and 0.25 hr, or 16, 3, 1 and 0.25 hr prior to AA challenge was assessed. The results of both multi-dosing regimens were compared to both phenidone (100 mg/kg administered 15 min prior to AA challenge) and CT-112 (SEQ. ID NO: 1) administered via Alzet mini-pump (60 mg/kg/day for 7 days). For this latter study, the number of animals receiving the single injection of CT-112 (SEQ. ID NO: 1) was increased from 5 to 10.
Administration to mice of CT-112 (SEQ. ID NO: 1) (60 mg/kg/injection) via multiple subcutaneous injections prior to AA challenge was performed at:
In addition, other mice received only a single subcutaneous injection of CT-112 (SEQ. ID NO: 1) (60 mg/kg) at either 3 or 1 hr prior to AA challenge. […]

[1] = Table III, 1-day pump, 60 mg/kg/day
[2] = Table III, 3-day pump, 60 mg/kg/day
[3] = Table III, 7-day pump, 60 mg/kg/day
[4] = Table III, ip 60 mg/kg/injection at 24, 1, 0.25 hr prior to AA
[5] = Table IV, 7-day pump, 60 mg/kg/day
[6] = Table IV, ip 60 mg/kg/injection at 1, 0.25 hr prior to AA
[7] = Table IV, ip 60 mg/kg/injection at 3, 1, 0.25 hr prior to AA
[8] = Table IV, ip 60 mg/kg/injection at 6, 3, 1, 0.25 hr prior to AA
[9] = Table IV, single ip 60 mg/kg 3 hr prior to AA
[10] = Table V, 7-day pump, 60 mg/kg/day
[11] = Table V, ip at 6, 3, 1, 0.25 hr prior to AA
[12] = Table V, ip at 16, 3, 1, 0.25 hr prior to AA
[13] = Table VI, 7-day pump, 60 mg/kg/day
[14] = Table VI, sc 60 mg/kg/injection at 1, 0.25 hr prior to AA
[15] = Table VI, sc 60 mg/kg/injection at 3, 1, 0.25 hr prior to AA
[16] = Table VI, sc 60 mg/kg/injection at 6, 3, 1, 0.25 hr prior to AA
[17] = Table VI, single sc 60 mg/kg 1 hr prior to AA
[18] = Table VI, single sc 60 mg/kg 3 hr prior to AA
[19] = Table VII, 3 day pump, 60 mg/kg/day
[20] = Table VII, single ip 3 hr prior to AA
[21] = Table VII, single sc 0.25 hr prior to AA
[22] = Table VII, single sc 1 hr prior to AA
[23] = Table VII, single sc 3 hr prior to AA
[24] = Table VII, single sc 6 hr prior to AA
[25] = Table VIII, 3 day pump, 60 mg/kg/day
[26] = Table VIII, po 200 mg/kg/gavage at 1, 0.25 hr prior to AA
[27] = Table VIII, po 200 mg/kg/gavage at 6, 3, 1, 0.25 hr prior to AA
[28] = Table VIII, single po 200 mg/kg 1 hr prior to AA
[29] = Table VIII, single po 200 mg/kg 3 hr prior to AA
[30] = Table XI, 60 mg/kg/day minipump, 3 days

TTSQVRPR [CT-112, octapeptide derived from platelet factor 4]
% Reduction of Ear Swelling (0.05 mg/animal/day): 43.1% | Ear Thickness (0.05 mg/animal/day, AA on day 6): 0.01577 ± 0.00155 in | % Reduction of Ear Swelling (0.1 mg/animal/day): 43.1% | Ear Thickness (0.1 mg/animal/day): 0.01577 ± 0.00191 in | % Reduction of Ear Swelling (1.0 mg/animal/day): 89.0% | Ear Thickness (1.0 mg/animal/day): 0.01128 ± 0.00291 in | % Reduction of Ear Swelling (2.5 mg/animal/day): 95.6% | Ear Thickness (2.5 mg/animal/day): 0.0106 ± 0.00175 in | % Inhibition of Inflammation [1]: 112% | Thickness Difference (Left-Right) [1]: -0.00074 ± 0.00119 in | % Inhibition of Inflammation [2]: 119% | Thickness Difference (Left-Right) [2]: -0.00115 ± 0.00058 in | % Inhibition of Inflammation [3]: 108% | Thickness Difference (Left-Right) [3]: -0.00051 ± 0.00116 in | % Inhibition of Inflammation [4]: 62% | Thickness Difference (Left-Right) [4]: 0.00226 ± 0.00124 in | % Inhibition of Inflammation [5]: 94% and 93.9% | Thickness Difference (Left-Right) [5]: 0.00033 ± 0.00065 in | % Inhibition of Inflammation [6]: 64.4% | Thickness Difference (Left-Right) [6]: 0.00192 ± 0.00148 in | % Inhibition of Inflammation [7]: 73.8% | Thickness Difference (Left-Right) [7]: 0.00141 ± 0.00138 in | % Inhibition of Inflammation [8]: 73.2% | Thickness Difference (Left-Right) [8]: 0.00144 ± 0.00126 in | Thickness Difference (Left-Right) (Table IV, single ip 60 mg/kg 1 hr prior to AA): 0.00308 ± 0.00189 in | % Inhibition of Inflammation (Table IV, single ip 60 mg/kg 1 hr prior to AA, 60 mg/kg): 43% and 42.9% | % Inhibition of Inflammation [9]: 78.5% | Thickness Difference (Left-Right) [9]: 0.00116 ± 0.001 in | % Inhibition of Inflammation [10]: 100.5% | Thickness Difference (Left-Right) [10]: -0.00003 ± 0.0012 in | % Inhibition of Inflammation [11]: 61.4% | Thickness Difference (Left-Right) [11]: 0.00249 ± 0.0017 in | % Inhibition of Inflammation [12]: 56.3% | Thickness Difference (Left-Right) [12]: 0.00283 ± 0.00218 in | % Inhibition of Inflammation [13]: 87% and 86.5% | Thickness Difference (Left-Right) [13]: 0.00083 ± 0.00084 in | % Inhibition of Inflammation [14]: 68.4% | Thickness Difference (Left-Right) [14]: 0.00195 ± 0.00131 in | % Inhibition of Inflammation [15]: 68.7% | Thickness Difference (Left-Right) [15]: 0.00193 ± 0.0007 in | % Inhibition of Inflammation [16]: 76.2% | Thickness Difference (Left-Right) [16]: 0.00147 ± 0.00041 in | % Inhibition of Inflammation [17]: 71.8% | Thickness Difference (Left-Right) [17]: 0.00174 ± 0.00128 in | % Inhibition of Inflammation [18]: 65.5% | Thickness Difference (Left-Right) [18]: 0.00213 ± 0.00089 in | % Inhibition of Inflammation [19]: 67.0% | Thickness Difference (Left-Right) [19]: 0.00127 ± 0.00128 in | % Inhibition of Inflammation [20]: 37.2% | Thickness Difference (Left-Right) [20]: 0.00242 ± 0.00187 in | % Inhibition of Inflammation [21]: 34.7% | Thickness Difference (Left-Right) [21]: 0.00252 ± 0.00128 in | % Inhibition of Inflammation [22]: 44.5% | Thickness Difference (Left-Right) [22]: 0.00214 ± 0.00122 in | % Inhibition of Inflammation [23]: 36.9% | Thickness Difference (Left-Right) [23]: 0.00243 ± 0.00107 in | % Inhibition of Inflammation [24]: 69.6% | Thickness Difference (Left-Right) [24]: 0.00117 ± 0.00066 in | % Inhibition of Inflammation [25]: 88% and 88.4% | Thickness Difference (Left-Right) [25]: 0.00058 ± 0.00086 in | % Inhibition of Inflammation [26]: 51.9% | Thickness Difference (Left-Right) [26]: 0.00241 ± 0.00124 in | Thickness Difference (Left-Right) (Table VIII, po 200 mg/kg/gavage at 3, 1, 0.25 hr prior to AA): 0.0028 ± 0.00114 in | % Inhibition of Inflammation (Table VIII, po 200 mg/kg/gavage at 3, 1, 0.25 hr prior to AA, 200 mg/kg): 44% and 44.1% | % Inhibition of Inflammation [27]: 73.3% | Thickness Difference (Left-Right) [27]: 0.00134 ± 0.00257 in | % Inhibition of Inflammation [28]: 72.3% | Thickness Difference (Left-Right) [28]: 0.00139 ± 0.00122 in | % Inhibition of Inflammation [29]: 93.8% | Thickness Difference (Left-Right) [29]: 0.00031 ± 0.00198 in | % Inhibition of Inflammation (Table XI, 6 mg/kg/day minipump, 3 days): 40.8% | Thickness Difference (Left-Right) (Table XI, 6 mg/kg/day minipump, AA 3 days after implantation): 0.00381 ± 0.00066 in | % Inhibition of Inflammation [30]: 85.2% | Thickness Difference (Left-Right) [30]: 0.00095 ± 0.00064 in | Thickness Difference (Left-Right) (Table XIII, 60 mg/kg/day via Alzet pump for 24 hr): 0.00132 ± 0.00086 in | Thickness Difference (Left-Right) (Table XIV, 60 mg/kg/day via Alzet pump for 24 hr): 0.00134 ± 0.00044 in | Thickness Difference (Left-Right) (Table XV, 60 mg/kg/day via Alzet pump for 24 hr): 0.00154 ± 0.00092 in | % Inhibition (Table XVI, single 6 mg/kg sc 4 hr prior to AA, ear thickness 1 hr post-challenge): 64.9% | duration of activity (after single subcutaneous injection): greater than 6 hr | inhibition of the inflammatory process (ip 60 mg/kg/injection, all multi-dosing regimens and the 3 hr single dosing regimen): approximately 70% | reduction in inflammation (multiple ip injections at either 6, 3, 1, 0.25 hr or 16, 3, 1, 0.25 hr prior to AA): 56-61% | inhibition of the inflammatory process (oral 200 mg/kg/gavage, all multi- and single-dosing regimens except 3, 1, 0.25 hr): 52-94%

Reference: patent publication US5776892A, “Anti-inflammatory peptides” (Curative Health Services, Inc., priority 1994, dated 1998)
